Test results as given in US20040092498A1, “Substituted glycine derivatives for use as medicaments” (priority 2002, published 2004).

System: α2δ subunit
Experiment: radioligand binding assay using [3H]gabapentin and the α2δ subunit
Details: [3H]gabapentin radioligand; α2δ subunit derived from porcine brain tissue
Source text: The biological activity of the compounds of the invention may be measured in a radioligand binding assay using [^3H]gabapentin and the α2δ subunit derived from porcine brain tissue (Gee N. S., Brown J. P., Dissanayake V. U. K., Offord J., Thurlow R., Woodruff G. N., J. Biol. Chem., 1996;271:[…]). Results may be expressed in terms of μM or nM α2δ binding affinity.

| Activity (binding affinity) | SMILES |
| --- | --- |
| 71 nM | O=C(O)CNCCSc1ccc2ccncc2c1 [Example 11, {[2-(7-Isoquinolinylsulfanyl)ethyl]amino}acetic acid] |
| 1665 nM | O=C(O)CNCCOc1ccc(Cl)cc1Cl [Example 9, {[2-(2,4-Dichlorophenoxy)ethyl]amino}acetic acid] |
| 5406 nM | CCOC(=O)CNCCSc1ccc(Cl)cc1 [Example 12, Ethyl ({2-[(4-chlorophenyl)sulfanyl]ethyl}amino)acetate] |
| 198 nM | O=C(O)CNCCSc1ccc(Cl)cc1 [Example 6, ({2-[(4-Chlorophenyl)sulfanyl]ethyl}amino)acetic acid] |
| 507 nM | O=C(O)CNCCSCc1ccc(Cl)cc1 [Example 10, ({2-[(4-Chlorobenzyl)sulfanyl]ethyl}amino)acetic acid] |
| 987 nM | NCc1ccc(SCCNCC(=O)O)cc1 [Example 8, [(2-{[4-(Aminomethyl)phenyl]sulfanyl}ethyl)amino]acetic acid] |
